Source: patent US20240385177A1, “Screening Method Using Brown Adipocytes” (KATAOKA CORPORATION, priority 2021, published 2024)
“Also recorded” adds a separate entry of the source.

Test system: low-molecular-weight compound-induced brown adipocytes (ciBAs)
Test: Evaluation of browning tendency of ciBAs directly induced from human fibroblasts (Ucp1/Fabp4/Cidea expression, UCP1 protein, induction efficiency, mtDNA, OCR)
Type: cell-based
Conditions: human fibroblasts cultured 3 weeks
Description: The human fibroblasts used as material were purchased from DS Pharma Biomedical, Co., Ltd. The fibroblasts are derived from human skin. The above human fibroblasts were seeded in 35 mm dishes coated with gelatin (Cat #: 190-15805, manufactured by FUJIFILM Wako Pure Chemical Co.) at 5×10^4, and cultured in DMEM medium (Cat #: 11965092; manufactured by Gibco) supplemented with 10% fetal bovine serum (FBS), 100 U/mL penicillin, 100 μg/mL streptomycin until 80% to 90% confluency at 37° C., 5% CO2.
Then, after the human fibroblasts reached 80 to 90% confluency, the medium in the dish was replaced with the serum-free brown adipocyte-inducing medium “SFBAM” described below, and the human fibroblasts were cultured in SFBAM for 3 weeks. To induce ciBA, SFBAM was further supplemented with rosiglitazone (selective PPARγ agonist; 184-02651, manufactured by FUJIFILM Wako Pure Chemical Corporation) at a final concentration of 1 μmol/L, forskolin (cAMP inducer; 063-02193) at a final concentration of 7.5 μmol/L and BMP7 (bone morphogenetic protein; 026-19171, manufactured by FUJIFILM Wako Pure Chemical Corporation) at a final concentration of 20 ng/mL, and human fibroblasts were cultured for 3 weeks. Separately, capsaicin (TRPV1 agonist; 030-11353, manufactured by FUJIFILM Wako Pure Chemical Corporation) and/or nonivamide (TRPV1 agonist; sc-202735, Santa Cruz Biotechnology (manufactured by Santa Cruz Biotechnology, CA, USA), capsazepine (TRPV1 antagonist; 037-23171, manufactured by FUJIFILM Wako Pure Chemical Corporation), AMG9810 (TRPV1 antagonist; 015-25071, FUJIFILM Wako Pure Chemical Corporation), GSK1016790A (TRPV4 agonist; G0798, manufactured by Sigma-Aldrich) were added and human fibroblasts were cultured for 3 weeks. Medium was changed every 3 days.
SFBAM is a serum-free brown adipocyte-inducing medium prepared by adding each ingredient in Table 1 to DMEM medium (Cat #: 11965092; manufactured by Gibco).
To quantify gene expression, total RNA was extracted from fibroblasts treated with each compound using the FastGene (registered trademark) RNA basic kit (manufactured by Nippon Genetics). As a control, fibroblasts were cultured in parallel using SFBAM and total RNA was extracted from compound-induced brown adipocytes and control cells. After reverse transcription by ReverTraAce (registered trademark) PCR RT Master Mix with gDNA Remover (manufactured by Toyobo), Real-time PCR analysis was performed using Power SYBR Green PCR Master Mix (manufactured by Thermo Fisher Scientific). Three reactions were performed per level under the following conditions. • After 10 minutes at 95° C., • The cycle time is 15 seconds at 95° C., followed by 60 seconds at 60° C., for 40 cycles.
All results were standardized by the amount of Tbp mRNA.
Immunocytochemistry was performed as previously reported (Dai P, et al. J Clin Biochem Nutr. 2015; 56(3): 166-70). First, cells were fixed with 4% paraformaldehyde (manufactured by Nacalai Tesque). After washed with phosphate-buffered saline (PBS) three times, the cells were incubated with PBS containing 0.1% Triton X-100 for 10 minutes. The cells were then blocked with PBS containing 3% skim milk for 1hour at room temperature. UCP-1 antibodies (ab10983, manufactured by Abcam, Cambridge, UK) were diluted 1/500 with the blocking solutions. The cells were incubated with the antibodies overnight at 4° C. […] All images were acquired using a fluorescence microscopy (BZ-X710-All-in-One Fluorescence Microscope, manufactured by Keyence). […]

[1] = compound added to SFBAM with rosiglitazone, forskolin and BMP7 (RoFB), FIGS. 1-7, 10-12
[2] = TRPV1 antagonist added to culture with RoFB and capsaicin (25 μmol/L), FIGS. 8, 9

SMILES | browning tendency of ciBAs [1] | browning tendency of ciBAs [2]
CCCCCCCCC(=O)NCc1ccc(O)c(OC)c1 [nonivamide] | increased the browning tendency | 
CC(C)(C)c1ccc(/C=C/C(=O)Nc2ccc3c(c2)OCCO3)cc1 [AMG9810] |  | suppressed the browning tendency
CC(C)C[C@H](NC(=O)c1cc2ccccc2s1)C(=O)N1CCN(C(=O)[C@H](CO)NS(=O)(=O)c2ccc(Cl)cc2Cl)CC1 [GSK1016790A] | suppressed; also recorded: inhibits adipocyte browning | 
Oc1cc2c(cc1O)CN(C(=S)NCCc1ccc(Cl)cc1)CCC2 [capsazepine] |  | suppressed the browning tendency
COc1cc(CNC(=O)CCCC/C=C/C(C)C)ccc1O [capsaicin] | enhanced; also recorded: promotes adipocyte browning | 
